Legend:
[1] = molecular target: 5-hydroxytryptamine receptor 4 (Cavia porcellus) (UniProt O70528); experiment: Displacement of [3H]GR113808 from 5HT4R in guinea pig striatal membranes at 10^-8 M; assay type: cell membranes; settings: Striatum, Membrane
[2] = molecular target: 5-hydroxytryptamine receptor 4 (Cavia porcellus) (UniProt O70528); experiment: Displacement of [3H]GR113808 from 5HT4R in guinea pig striatal membranes at 10^-6 M; assay type: cell membranes; settings: Striatum, Membrane
[3] = molecular target: T1, 5-hydroxytryptamine receptor 4 (Homo sapiens, UniProt Q13639); experiment: Intrinsic activity at human 5HT4R
T1 sequence (Q13639 whole entry): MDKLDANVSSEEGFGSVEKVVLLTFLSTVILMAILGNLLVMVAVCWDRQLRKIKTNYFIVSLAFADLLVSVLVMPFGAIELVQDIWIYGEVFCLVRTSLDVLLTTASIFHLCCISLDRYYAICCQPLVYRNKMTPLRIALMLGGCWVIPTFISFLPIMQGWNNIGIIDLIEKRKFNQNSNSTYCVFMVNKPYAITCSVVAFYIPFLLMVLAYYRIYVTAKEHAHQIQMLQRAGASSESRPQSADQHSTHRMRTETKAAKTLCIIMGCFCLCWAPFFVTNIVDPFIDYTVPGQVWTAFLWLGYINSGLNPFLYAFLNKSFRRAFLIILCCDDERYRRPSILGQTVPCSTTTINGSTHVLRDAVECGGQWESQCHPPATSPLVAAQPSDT

[4] = molecular target: T2, 5-hydroxytryptamine receptor 1A (Homo sapiens, UniProt P08908); experiment: Binding affinity to human 5HT1A
T2 sequence (P08908 whole entry): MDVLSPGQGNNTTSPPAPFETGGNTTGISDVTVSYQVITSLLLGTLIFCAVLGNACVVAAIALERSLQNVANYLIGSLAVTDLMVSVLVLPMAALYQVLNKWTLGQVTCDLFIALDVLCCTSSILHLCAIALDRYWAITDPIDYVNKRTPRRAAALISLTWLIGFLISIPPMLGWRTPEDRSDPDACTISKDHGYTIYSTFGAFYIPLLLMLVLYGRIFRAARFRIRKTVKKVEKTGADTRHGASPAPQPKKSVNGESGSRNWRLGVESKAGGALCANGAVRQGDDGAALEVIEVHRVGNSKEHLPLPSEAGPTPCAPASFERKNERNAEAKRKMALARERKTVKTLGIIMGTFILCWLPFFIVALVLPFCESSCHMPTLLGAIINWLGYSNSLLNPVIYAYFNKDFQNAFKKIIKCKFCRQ

[5] = molecular target: 5-hydroxytryptamine receptor 7 (Homo sapiens, UniProt P34969); experiment: Binding affinity to human 5HT7
Sequence of 5-hydroxytryptamine receptor 7 (P34969 whole entry): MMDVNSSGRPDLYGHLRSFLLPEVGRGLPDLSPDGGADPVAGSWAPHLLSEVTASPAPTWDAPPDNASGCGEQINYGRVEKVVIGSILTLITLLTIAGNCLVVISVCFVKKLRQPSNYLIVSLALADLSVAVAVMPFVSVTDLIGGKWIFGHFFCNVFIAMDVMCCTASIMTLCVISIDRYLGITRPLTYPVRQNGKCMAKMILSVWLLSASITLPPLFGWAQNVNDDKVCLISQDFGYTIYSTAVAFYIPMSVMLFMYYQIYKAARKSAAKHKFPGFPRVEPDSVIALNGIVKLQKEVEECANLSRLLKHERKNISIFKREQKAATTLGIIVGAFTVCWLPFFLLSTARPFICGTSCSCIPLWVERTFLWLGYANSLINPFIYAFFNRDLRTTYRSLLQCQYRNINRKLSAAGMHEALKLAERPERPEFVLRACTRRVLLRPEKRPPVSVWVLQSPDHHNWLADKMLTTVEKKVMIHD

[6] = molecular target: T3, 5-hydroxytryptamine receptor 2C (Homo sapiens, UniProt P28335); experiment: Binding affinity to human 5HT2C
T3 sequence (P28335 whole entry): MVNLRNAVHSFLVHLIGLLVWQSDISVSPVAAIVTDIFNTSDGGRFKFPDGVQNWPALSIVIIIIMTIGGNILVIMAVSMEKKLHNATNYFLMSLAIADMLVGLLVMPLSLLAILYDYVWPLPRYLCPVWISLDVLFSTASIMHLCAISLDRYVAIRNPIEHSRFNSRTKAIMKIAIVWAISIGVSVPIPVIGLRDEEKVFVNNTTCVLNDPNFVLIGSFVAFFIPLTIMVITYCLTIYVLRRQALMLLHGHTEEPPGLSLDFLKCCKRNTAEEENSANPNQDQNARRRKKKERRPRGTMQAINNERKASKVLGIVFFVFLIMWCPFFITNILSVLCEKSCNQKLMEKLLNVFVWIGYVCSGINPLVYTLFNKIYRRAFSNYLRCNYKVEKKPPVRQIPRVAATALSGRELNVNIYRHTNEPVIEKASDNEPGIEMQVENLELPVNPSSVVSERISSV

[7] = molecular target: 5-hydroxytryptamine receptor 1B (Homo sapiens, UniProt P28222); experiment: Binding affinity to human 5HT1B
Sequence of 5-hydroxytryptamine receptor 1B (P28222 whole entry): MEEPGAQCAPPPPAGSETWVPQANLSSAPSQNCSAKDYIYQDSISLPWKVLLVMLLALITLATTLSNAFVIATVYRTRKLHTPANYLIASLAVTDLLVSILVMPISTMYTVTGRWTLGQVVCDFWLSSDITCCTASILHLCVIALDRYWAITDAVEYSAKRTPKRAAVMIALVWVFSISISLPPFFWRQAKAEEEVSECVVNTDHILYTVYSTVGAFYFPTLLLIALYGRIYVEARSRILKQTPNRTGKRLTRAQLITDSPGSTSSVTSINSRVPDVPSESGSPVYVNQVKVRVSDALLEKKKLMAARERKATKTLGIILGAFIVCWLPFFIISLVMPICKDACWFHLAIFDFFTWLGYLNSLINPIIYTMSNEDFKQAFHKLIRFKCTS

[8] = molecular target: 5-hydroxytryptamine receptor 2A (Homo sapiens, UniProt P28223); experiment: Binding affinity to human 5HT2A
Sequence of 5-hydroxytryptamine receptor 2A (P28223 whole entry): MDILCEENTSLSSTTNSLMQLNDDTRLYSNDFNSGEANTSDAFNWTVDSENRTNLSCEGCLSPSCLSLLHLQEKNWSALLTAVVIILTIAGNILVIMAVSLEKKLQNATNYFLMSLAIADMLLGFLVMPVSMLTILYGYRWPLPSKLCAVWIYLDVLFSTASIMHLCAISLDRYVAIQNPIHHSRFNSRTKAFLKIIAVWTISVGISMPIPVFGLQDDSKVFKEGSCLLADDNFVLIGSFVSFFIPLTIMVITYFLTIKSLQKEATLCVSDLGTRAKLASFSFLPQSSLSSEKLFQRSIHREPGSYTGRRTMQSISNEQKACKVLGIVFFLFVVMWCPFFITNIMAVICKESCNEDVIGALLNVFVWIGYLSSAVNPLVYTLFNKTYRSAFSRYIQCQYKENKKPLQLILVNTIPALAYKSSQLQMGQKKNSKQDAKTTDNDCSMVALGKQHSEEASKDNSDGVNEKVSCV

[9] = molecular target: 5-hydroxytryptamine receptor 5A (Homo sapiens, UniProt P47898); experiment: Binding affinity to human 5HT5A
Sequence of 5-hydroxytryptamine receptor 5A (P47898 whole entry): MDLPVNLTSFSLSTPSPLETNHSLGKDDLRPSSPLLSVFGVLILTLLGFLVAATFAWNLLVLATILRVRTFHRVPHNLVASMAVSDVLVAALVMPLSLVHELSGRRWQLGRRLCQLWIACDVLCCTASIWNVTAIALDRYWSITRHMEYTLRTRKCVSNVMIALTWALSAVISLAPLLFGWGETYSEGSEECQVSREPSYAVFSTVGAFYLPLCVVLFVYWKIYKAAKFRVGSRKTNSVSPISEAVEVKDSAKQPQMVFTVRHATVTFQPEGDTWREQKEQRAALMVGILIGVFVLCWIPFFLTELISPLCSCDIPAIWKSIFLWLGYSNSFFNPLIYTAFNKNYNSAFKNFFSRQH

[10] = molecular target: 5-hydroxytryptamine receptor 6 (Homo sapiens, UniProt P50406); experiment: Binding affinity to human 5HT6
Sequence of 5-hydroxytryptamine receptor 6 (P50406 whole entry): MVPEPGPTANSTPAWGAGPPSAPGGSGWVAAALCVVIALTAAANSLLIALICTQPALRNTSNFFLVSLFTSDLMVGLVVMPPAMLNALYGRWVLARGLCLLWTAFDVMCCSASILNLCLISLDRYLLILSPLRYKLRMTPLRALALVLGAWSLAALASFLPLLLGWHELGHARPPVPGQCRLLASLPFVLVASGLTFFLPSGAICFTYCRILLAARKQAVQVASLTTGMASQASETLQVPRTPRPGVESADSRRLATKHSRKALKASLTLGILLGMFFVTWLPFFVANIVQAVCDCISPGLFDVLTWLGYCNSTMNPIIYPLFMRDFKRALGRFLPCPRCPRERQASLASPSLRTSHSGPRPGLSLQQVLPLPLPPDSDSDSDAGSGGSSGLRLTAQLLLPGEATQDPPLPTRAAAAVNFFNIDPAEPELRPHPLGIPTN

[11] = molecular target: 5-hydroxytryptamine receptor 4 (Cavia porcellus, UniProt O70528); experiment: Displacement of [3H]GR113808 from 5HT4R in guinea pig striatal membranes; assay type: cell membranes, Striatum, Membrane
Sequence of 5-hydroxytryptamine receptor 4 (Cavia porcellus, UniProt O70528) (O70528 whole entry): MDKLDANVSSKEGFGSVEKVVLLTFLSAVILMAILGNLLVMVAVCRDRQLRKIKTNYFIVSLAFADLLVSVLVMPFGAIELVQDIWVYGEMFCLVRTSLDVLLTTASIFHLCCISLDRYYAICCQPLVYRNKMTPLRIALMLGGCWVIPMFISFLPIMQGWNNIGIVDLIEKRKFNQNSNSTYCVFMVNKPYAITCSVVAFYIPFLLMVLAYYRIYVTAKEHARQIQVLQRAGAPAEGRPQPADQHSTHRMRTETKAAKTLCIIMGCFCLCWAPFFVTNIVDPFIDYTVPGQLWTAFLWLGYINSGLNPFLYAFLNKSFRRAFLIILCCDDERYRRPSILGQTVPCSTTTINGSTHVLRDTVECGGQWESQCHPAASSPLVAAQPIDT

[12] = molecular target: 5-hydroxytryptamine receptor 2B (Homo sapiens, UniProt P41595); experiment: Binding affinity to human 5HT2B
Sequence of 5-hydroxytryptamine receptor 2B (P41595 whole entry): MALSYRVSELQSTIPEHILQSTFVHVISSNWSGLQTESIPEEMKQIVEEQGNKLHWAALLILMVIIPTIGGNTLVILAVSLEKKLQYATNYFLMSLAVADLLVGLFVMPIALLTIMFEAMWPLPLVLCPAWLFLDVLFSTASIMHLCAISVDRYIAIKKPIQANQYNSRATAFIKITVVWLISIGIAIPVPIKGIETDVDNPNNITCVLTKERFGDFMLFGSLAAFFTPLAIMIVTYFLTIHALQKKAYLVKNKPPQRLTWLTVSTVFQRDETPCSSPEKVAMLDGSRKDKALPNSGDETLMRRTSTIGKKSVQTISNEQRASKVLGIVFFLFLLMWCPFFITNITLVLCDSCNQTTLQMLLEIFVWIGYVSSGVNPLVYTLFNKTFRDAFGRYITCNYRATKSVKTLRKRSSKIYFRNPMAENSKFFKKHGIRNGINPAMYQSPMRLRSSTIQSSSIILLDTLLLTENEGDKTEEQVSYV

[13] = molecular target: T4, 5-hydroxytryptamine receptor 3A (Homo sapiens, UniProt P46098); experiment: Binding affinity to human 5HT3
T4 sequence (P46098 whole entry): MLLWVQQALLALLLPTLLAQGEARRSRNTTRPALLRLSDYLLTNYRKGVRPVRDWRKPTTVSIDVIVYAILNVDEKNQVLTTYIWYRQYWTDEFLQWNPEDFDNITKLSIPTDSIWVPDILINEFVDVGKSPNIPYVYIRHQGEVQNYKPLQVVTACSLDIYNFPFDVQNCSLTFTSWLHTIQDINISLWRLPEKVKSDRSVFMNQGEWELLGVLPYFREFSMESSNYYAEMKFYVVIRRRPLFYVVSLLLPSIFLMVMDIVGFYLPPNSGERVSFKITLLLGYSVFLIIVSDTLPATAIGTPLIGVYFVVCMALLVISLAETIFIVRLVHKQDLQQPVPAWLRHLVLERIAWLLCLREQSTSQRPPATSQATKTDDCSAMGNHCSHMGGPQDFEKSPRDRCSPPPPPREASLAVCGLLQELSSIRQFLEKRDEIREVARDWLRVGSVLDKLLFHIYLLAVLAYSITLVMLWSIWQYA

[14] = molecular target: 5-hydroxytryptamine receptor 1D (Homo sapiens, UniProt P28221); experiment: Binding affinity to human 5HT1D
Sequence of 5-hydroxytryptamine receptor 1D (P28221 whole entry): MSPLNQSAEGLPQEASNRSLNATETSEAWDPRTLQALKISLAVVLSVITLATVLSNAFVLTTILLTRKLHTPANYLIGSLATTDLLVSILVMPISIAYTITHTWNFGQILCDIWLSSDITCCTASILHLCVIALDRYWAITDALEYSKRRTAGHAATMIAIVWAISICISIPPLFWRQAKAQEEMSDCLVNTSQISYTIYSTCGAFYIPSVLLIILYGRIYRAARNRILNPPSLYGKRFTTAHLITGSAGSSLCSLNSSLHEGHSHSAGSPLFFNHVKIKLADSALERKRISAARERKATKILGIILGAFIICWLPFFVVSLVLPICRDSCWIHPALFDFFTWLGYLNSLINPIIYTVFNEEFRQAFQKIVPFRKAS

[15] = molecular target: T1, 5-hydroxytryptamine receptor 4; experiment: Binding affinity to human 5HT4R

Sequence of 5-hydroxytryptamine receptor 4 (Cavia porcellus) (O70528 whole entry): as the sequence (O70528 whole entry) above

SMILES	inhibition [1]	inhibition [2]	Ki [11]	also measured
Fc1cccc2c1nc(OCC1CCN(CC(F)(F)F)CC1)c1ccccc12	0%	3%	–	–
Fc1cccc2c1nc(OCC1CCN(CCC(F)(F)F)CC1)c1cccnc12	80%	100%	9 nM	Kb [3]: 0.079 nM; Ki [4]: > 10000 nM; Ki [5]: > 10000 nM; Ki [6]: > 10000 nM; Ki [7]: > 10000 nM; Ki [8]: > 10000 nM; Ki [9]: > 10000 nM; Ki [10]: > 10000 nM; Ki [12]: 230 nM; Ki [13]: 1200 nM; Ki [14]: > 10000 nM; Ki [15]: 0.11 nM
Fc1cccc2c1nc(OCC1CCN(CCCC(F)(F)F)CC1)c1ccccc12	49%	100%	14.1 nM	–
FC(F)(F)CN1CCC(COc2nc3ccccc3c3ccccc23)CC1	0%	1%	–	–
Fc1cccc2c1nc(OCC1CCN(CC(F)F)CC1)c1cccnc12	26%	100%	91.4 nM	–
Fc1cccc2c1nc(OCC1CCN(CCC(F)(F)F)CC1)c1ccccc12	61%	100%	22 nM	–
Fc1cccc2c1nc(OCC1CCN(CCCC(F)(F)F)CC1)c1cccnc12	80%	100%	4.2 nM	Kb [3]: 0.199 nM; Ki [4]: > 10000 nM; Ki [5]: > 10000 nM; Ki [6]: 980 nM; Ki [7]: > 10000 nM; Ki [8]: 8700 nM; Ki [9]: > 10000 nM; Ki [10]: > 10000 nM; Ki [12]: 190 nM; Ki [13]: 2600 nM; Ki [14]: > 10000 nM; Ki [15]: 0.2 nM
CCCN1CCC(COc2nc3c(F)cccc3c3ncccc23)CC1	94%	–	–	–
Fc1cccc2c1nc(OCC1CCN(CC(F)(F)C(F)(F)F)CC1)c1ccccc12	0%	4%	–	–
FC(F)(F)C(F)(F)CN1CCC(COc2nc3ccccc3c3ccccc23)CC1	0%	1%	–	–
Fc1cccc2c1nc(OCC1CCN(CC(F)F)CC1)c1ccccc12	0%	93%	–	–
FC(F)CN1CCC(COc2nc3ccccc3c3ccccc23)CC1	0%	58%	–	–

Reference: ChEMBL document CHEMBL3091289, “Design of fluorinated 5-HT(4)R antagonists: influence of the basicity and lipophilicity toward the 5-HT(4)R binding affinities” (Bioorg Med Chem, 2013)
